# From US8211916B2, “N- and O-substituted 4-[2-(diphenylmethoxy)-ethyl]-1-[(phenyl)methyl]piperidine analogs and methods of treating CNS disorders therewith” (Wayne State University, priority 2000, dated 2012)
# Counter-ions that a name gives are not always drawn. Like-named read-outs stand apart in the source and are kept apart here.
# What was measured:
# rat SERT = molecular target: T1, rat SERT (Rattus norvegicus, UniProt P31652); experiment: Rat SERT binding, [3H]citalopram, striatal membranes
# T1 construct: from tissue; host or cells: rat striatum (membranes)
# Experimental: (§1) Briefly, rat striatal membranes were incubated with radioligand and inhibitor for 2 h on ice in a sodium phosphate buffer at a final Na^+ concentration of 30 nM, pH 7.4, at room temperature. The assays were terminated by filtration through glass fiber filtermats (Wallac, Inc., Gaithersburg, Md.), presoaked in 0.05% (v/v) polyethyleneimine, with a MACH3-96 Tomtec harvester (Wallac, Inc.). Filters were assayed for radioactivity in a Microbeta Plus liquid scintillation counter (Wallac, Inc.).
# rat DAT = rat DAT (Rattus norvegicus, UniProt P23977); experiment: Rat DAT binding, [3H]Win 35,428, striatal membranes
# Experimental: as §1
# DAT = molecular target: T2, DAT (Rattus norvegicus, UniProt P23977); experiment: Uptake of [3H]DA by DAT, rat striatum; type: biochemical; settings: for Ki: [3H]DA uptake, rat striatum
# T2 construct: from tissue; host or cells: rat striatum
# Text: Transporter assays. The affinity of test compounds in binding to rat DAT and in inhibiting monoamine uptake was monitored as described by us previously. […] Rat cerebral cortex was used for assessing uptake of [^3H]serotonin by SERT and hippocampus for uptake of [^3H]NE by NET. […] At lease five triplicate concentrations of each test compound were studied, spaced evenly around the IC50 value. The latter was estimated by nonlinear computer curve-fitting procedures and converted to Ki with the Cheng-Prusoff equation.
# [1] = molecular target: dopamine transporter (DAT) (Rattus norvegicus, UniProt P23977); experiment: biochemical
# [2] = molecular target: T3, Norepinephrine (NET) Transporter (Rattus norvegicus, UniProt Q63380); experiment: NET binding, [3H]nisoxetine
# T3 construct: and norepinephrine Transporters in Rat Striatum; from tissue
# [3] = read-out: Ki (DAT), inhibition of DA uptake
# [4] = Ki (DAT), inhibition of DA uptake
# T1 sequence (P31652 whole entry): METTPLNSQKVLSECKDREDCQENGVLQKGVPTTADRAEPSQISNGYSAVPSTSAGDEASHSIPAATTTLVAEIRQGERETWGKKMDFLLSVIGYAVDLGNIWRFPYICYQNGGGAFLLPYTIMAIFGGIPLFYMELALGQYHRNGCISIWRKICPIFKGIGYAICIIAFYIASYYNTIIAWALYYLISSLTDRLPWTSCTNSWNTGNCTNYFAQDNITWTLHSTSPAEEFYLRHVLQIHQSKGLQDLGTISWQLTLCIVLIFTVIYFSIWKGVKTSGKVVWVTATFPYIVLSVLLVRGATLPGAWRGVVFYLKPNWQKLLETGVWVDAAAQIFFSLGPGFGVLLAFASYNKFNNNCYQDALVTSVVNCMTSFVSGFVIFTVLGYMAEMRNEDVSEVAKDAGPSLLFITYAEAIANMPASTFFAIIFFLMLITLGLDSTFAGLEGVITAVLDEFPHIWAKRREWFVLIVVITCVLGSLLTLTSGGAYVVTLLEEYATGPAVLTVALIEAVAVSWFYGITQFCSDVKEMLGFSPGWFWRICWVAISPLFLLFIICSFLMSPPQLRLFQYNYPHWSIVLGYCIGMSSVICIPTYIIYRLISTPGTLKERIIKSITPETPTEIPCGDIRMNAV
# T3 sequence (Q63380 1-617): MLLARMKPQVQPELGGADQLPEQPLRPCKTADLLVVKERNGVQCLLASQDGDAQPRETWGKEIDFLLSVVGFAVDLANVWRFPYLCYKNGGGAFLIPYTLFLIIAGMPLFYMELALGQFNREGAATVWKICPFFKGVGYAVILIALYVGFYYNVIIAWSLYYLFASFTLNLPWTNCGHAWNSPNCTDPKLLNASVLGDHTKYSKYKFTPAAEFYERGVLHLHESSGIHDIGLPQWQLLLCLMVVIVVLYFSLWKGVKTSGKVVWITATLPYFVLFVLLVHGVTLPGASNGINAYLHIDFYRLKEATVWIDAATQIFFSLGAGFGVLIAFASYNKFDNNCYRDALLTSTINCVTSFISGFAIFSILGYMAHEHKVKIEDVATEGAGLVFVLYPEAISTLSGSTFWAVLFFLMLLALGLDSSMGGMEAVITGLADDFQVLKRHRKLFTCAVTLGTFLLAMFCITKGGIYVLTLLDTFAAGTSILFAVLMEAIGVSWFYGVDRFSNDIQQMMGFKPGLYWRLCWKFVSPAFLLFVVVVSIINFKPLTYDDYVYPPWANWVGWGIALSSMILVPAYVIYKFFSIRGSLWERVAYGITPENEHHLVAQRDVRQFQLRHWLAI
# T2 sequence (P23977 whole entry): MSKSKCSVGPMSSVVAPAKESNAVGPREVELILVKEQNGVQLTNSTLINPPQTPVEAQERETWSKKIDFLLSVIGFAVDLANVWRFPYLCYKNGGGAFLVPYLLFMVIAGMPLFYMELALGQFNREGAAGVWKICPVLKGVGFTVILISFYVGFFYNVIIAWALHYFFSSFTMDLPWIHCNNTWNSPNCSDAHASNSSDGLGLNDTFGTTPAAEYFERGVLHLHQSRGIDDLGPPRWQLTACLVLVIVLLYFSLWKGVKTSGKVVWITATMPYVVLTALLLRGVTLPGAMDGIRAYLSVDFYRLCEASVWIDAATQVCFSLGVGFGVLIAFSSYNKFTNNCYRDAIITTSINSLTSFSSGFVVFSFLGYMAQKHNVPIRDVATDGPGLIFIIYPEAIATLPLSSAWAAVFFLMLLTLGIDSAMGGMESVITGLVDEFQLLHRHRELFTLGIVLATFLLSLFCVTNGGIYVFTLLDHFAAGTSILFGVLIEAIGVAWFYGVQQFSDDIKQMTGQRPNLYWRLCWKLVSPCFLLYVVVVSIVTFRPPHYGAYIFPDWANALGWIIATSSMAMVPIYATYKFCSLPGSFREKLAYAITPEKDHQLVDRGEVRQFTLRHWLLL
# Chain of rat DAT (P23977 whole entry): as above
# Chain of dopamine transporter (DAT) (P23977 whole entry): as above
compound,measurement,setting,value
"CC(NCCC1CCN(Cc2ccc(F)cc2)CC1)c1ccccc1 (stereo not shown) [Example 14, 4[2-[(1-(phenyl)ethyl)amino]ethyl]-1-[(4-fluorophenyl)methyl]piperidine]",IC50,"rat SERT; Table 1, read-out: SERT, IC50",963 ± 38.5 nM
same,IC50,"rat DAT; read-out: DAT, IC50, Table 1",295 ± 40.9 nM
"Fc1ccc(CN2CCC(CCOC(c3ccccc3)c3ccccc3)CC2)cc1F (as salt: oxalate) [Example 2, 4-[2-(Diphenylmethoxy)ethyl]-1-[(3,4-difluorophenyl)methyl]piperidine]",melting point,,158 to 159 °C
"Fc1ccc(C(NCC2CCN(CCc3ccccc3)CC2)c2ccc(F)cc2)cc1 (as salt: HCl) [Example 12, 4-[(Bis(4-fluorophenyl)methylamino)methyl]-1-[2-(phenyl)ethyl]piperidine]",melting point,,214 to 215 °C
"OC1CN(Cc2ccc(F)cc2)CCC1CCOC(c1ccccc1)c1ccccc1 (racemic) (as salt: oxalate) [Example 16, racemic trans-3-hydroxy-4-[2-diphenylmethoxy)ethyl]-1-[(4-fluorophenyl)methyl]piperidine]",melting point,,143 to 150 °C
"Fc1ccc(CN2CCC(CCNC(c3ccccc3)c3ccccc3)CC2)cc1F (as salt: HCl) [Example 8, 4-[2-((Diphenylmethyl)amino)ethyl]-1-[(3,4-difluorophenyl)methyl]piperidine]",melting point,,280 to 281 °C
"O=C1CN(Cc2ccc(F)cc2)CCC1CCOC(c1ccccc1)c1ccccc1 (racemic) (as salt: oxalate) (hydrate or solvate) [Example 18, racemic 3-Keto-4-[2-(diphenylmethoxy)ethyl]-1-[(4-fluorophenyl)methyl]piperidine]",melting point,,104 to 109 °C
"1-((5S,8S)-8-benzhydryl-1,4-diazabicyclo[3.3.1]nonane-2-yl)-3-phenylpropan-2-ol [Example 6a]",Ki,DAT; [3],82.9 nM
"CS(=O)(=O)Nc1ccc(CN2CCC(CCOC(c3ccccc3)c3ccccc3)CC2)cc1 [Example 6, 4-[2-(Diphenylmethoxy)ethyl]-1-[((4-methylsulfonylamino)phenyl)methyl]piperidine]",IC50,"rat SERT; Table 1, read-out: SERT, IC50",586 ± 29.2 nM
same,IC50,[1],9.7 ± 1.2 nM
same,IC50,"rat DAT; read-out: DAT, IC50, Table 1",26.6 ± 1.4 nM
"Fc1ccc(CN2CCC(CCOC(c3ccccc3)c3ccccc3)CC2)cc1F [Example 2, 4-[2-(Diphenylmethoxy)ethyl]-1-[(3,4-difluorophenyl)methyl]piperidine]",IC50,"rat SERT; Table 1, read-out: SERT, IC50",1220 ± 139 nM
same,IC50,[1],12 ± 1.62 nM
same,SERT/DAT selectivity ratio,rat DAT,122
same,IC50,"rat DAT; read-out: DAT, IC50, Table 1",10.1 ± 0.9 nM
"CS(=O)(=O)Nc1ccc(CN2CCC(CCOC(c3ccccc3)c3ccccc3)CC2)cc1 (as salt: oxalate) [Example 6, 4-[2-(Diphenylmethoxy)ethyl]-1-[((4-methylsulfonylamino)phenyl)methyl]piperidine]",melting point,,122 to 124 °C
"Fc1ccc(CN2CCC(CNCC(c3ccccc3)c3ccccc3)CC2)cc1 (as salt: HCl) [Example 11, 4-[[2-(Diphenyl)ethyl]aminomethyl]-1-[(4-fluorophenyl)methyl]piperidine]",melting point,,126 to 127 °C
c1ccc(CN2CCC(CCNC(c3ccccc3)c3ccccc3)CC2)cc1 [Example 9],IC50,"rat SERT; Table 1, read-out: SERT, IC50",1560 ± 208 nM
same,IC50,"[2]; Table 1, read-out: NET, IC50",2620 nM
same,IC50,[1],20.6 ± 2.5 nM
"O[C@@H](CN[C@H]1CC[C@@H](C(c2ccccc2)c2ccccc2)NC1)Cc1ccccc1 [Example 4c, (R)-1-[(3S,6S)-6-benzhydrylpiperidin-3-ylamino)-3-phenylpropan-2-ol]",Ki,DAT; [3],25 nM
"N#Cc1ccc(CN2CCC(CCOC(c3ccccc3)c3ccccc3)CC2)cc1 (as salt: oxalate) [Example 4, 4-[2-(Diphenylmethoxy)ethyl]-1-[(4-cyanophenyl)methyl]piperidine]",melting point,,120 to 121 °C
"OC(CCN1CCN2CC1CCC2C(c1ccccc1)c1ccccc1)c1ccc(F)cc1 (single isomer, unassigned) [Example 11a]",Ki,DAT; [4],41.8 nM
"OC(CCN1CCN2CC1CCC2C(c1ccccc1)c1ccccc1)c1ccc(F)cc1 (single isomer, unassigned) [Example 11b]",Ki,DAT; [4],8.63 nM
same,NET/DAT,"DAT; uptake inhibition selectivity, norepinephrine vs dopamine",48.4
same,SERT/DAT,"DAT; uptake inhibition selectivity, serotonin vs dopamine",172
CC(OCCC1CCN(Cc2ccc(F)cc2)CC1)c1ccccc1 (stereo not shown) [4-[((1-phenylethoxy)ethyl]-1-[(4-fluorophenyl)methyl]piperidine],IC50,"rat SERT; Table 1, read-out: SERT, IC50",5860 ± 595 nM
same,IC50,"rat DAT; read-out: DAT, IC50, Table 1",751 ± 61.6 nM
"O[C@H](CN[C@H]1CC[C@@H](C(c2ccccc2)c2ccccc2)NC1)Cc1ccccc1 [Example 4d, (S)-1-[(3S,6S)-6-benzhydrylpiperidin-3-ylamino)-3-phenylpropan-2-ol]",Ki,DAT; [3],25.3 nM
"O=C(Cc1ccccc1)N1CCC(CCOC(c2ccccc2)c2ccccc2)CC1 [Example 5, 4-[2-(Diphenylmethoxy)ethyl]-1-[(phenylmethyl)carbonyl]piperidine]",IC50,"rat SERT; Table 1, read-out: SERT, IC50",> 1000 nM
same,IC50,"rat DAT; read-out: DAT, IC50",2160 ± 54 nM
"Fc1ccc(C(NCC2CCN(CCc3ccccc3)CC2)c2ccc(F)cc2)cc1 [Example 12, 4-[(Bis(4-fluorophenyl)methylamino)methyl]-1-[2-(phenyl)ethyl]piperidine]",IC50,"rat SERT; Table 1, read-out: SERT, IC50",1100 ± 246 nM
same,IC50,"rat DAT; read-out: DAT, IC50",65.3 ± 3.2 nM
"N#Cc1ccc(CN2CCC(CCOC(c3ccccc3)c3ccccc3)CC2)cc1 [Example 4, 4-[2-(Diphenylmethoxy)ethyl]-1-[(4-cyanophenyl)methyl]piperidine]",IC50,"rat SERT; read-out: SERT, IC50",2280 ± 470 nM
same,IC50,[1],4.58 ± 0.8 nM
same,SERT/DAT selectivity ratio,rat DAT,615
same,IC50,rat DAT; read-out: IC50 for the dopamine transporter,3.7 nM
"Ic1ccc(CN2CCC(CCOC(c3ccccc3)c3ccccc3)CC2)cc1 [Example 19, 4-[2-(diphenylmethoxy)ethyl]-1-[(4-iodophenyl)methyl]piperidine]",IC50,"rat SERT; Table 1, read-out: SERT, IC50",2920 ± 432 nM
same,IC50,"[2]; Table 1, read-out: NET, IC50",1150 ± 116 nM
same,IC50,"rat DAT; read-out: DAT, IC50, Table 1",0.96 ± 0.16 nM
"FC(F)(F)c1ccc(CN2CCC(CCOC(c3ccccc3)c3ccccc3)CC2)cc1 [Example 3, 4-[2-(Diphenylmethoxy)ethyl]-1-[((4-trifluoromethyl)phenyl)methyl]piperidine]",IC50,"rat SERT; Table 1, read-out: SERT, IC50",2260 ± 144 nM
same,IC50,"rat DAT; read-out: DAT, IC50",32.1 ± 2.1 nM
CCC(=O)OC1CN(Cc2ccc(F)cc2)CCC1CCOC(c1ccccc1)c1ccccc1 (racemic) [Example 17],IC50,"rat SERT; Table 5, rat striatum, read-out: SERT, IC50, nM [3H]citalopram",178 nM
same,IC50,[2],35800 nM
same,IC50,rat DAT,583 ± 81 nM
"Fc1cccc(CN2CCC(CCOC(c3ccccc3)c3ccccc3)CC2)c1 [Example 1, 4-[2-(Diphenylmethoxy)ethyl]-1-[(3-fluorophenyl)methyl]piperidine]",IC50,"rat SERT; Table 1, read-out: SERT, IC50",1150 ± 43.4 nM
same,IC50,"rat DAT; read-out: DAT, IC50, Table 1",23.4 ± 3.8 nM
"Ic1ccc(CN2CCC(CCOC(c3ccccc3)c3ccccc3)CC2)cc1 (as salt: oxalate) [Example 19, 4-[2-(diphenylmethoxy)ethyl]-1-[(4-iodophenyl)methyl]piperidine]",melting point,,160 to 161 °C
"Fc1cccc(CN2CCC(CCOC(c3ccccc3)c3ccccc3)CC2)c1 (as salt: oxalate) [Example 1, 4-[2-(Diphenylmethoxy)ethyl]-1-[(3-fluorophenyl)methyl]piperidine]",melting point,,150 to 151 °C
"CC(NCCC1CCN(Cc2ccc(F)cc2)CC1)c1ccccc1 (stereo not shown) (as salt: oxalate) [Example 14, 4[2-[(1-(phenyl)ethyl)amino]ethyl]-1-[(4-fluorophenyl)methyl]piperidine]",melting point,,172 to 173 °C
"CN(CCC1CCN(Cc2ccccc2)CC1)C(c1ccccc1)c1ccccc1 [Example 10, 4-[2-((Diphenylmethyl)-N-methylamino)ethyl]-1-(4-phenylmethyl)piperidine]",IC50,"rat SERT; Table 1, read-out: SERT, IC50",1660 ± 469 nM
same,IC50,"rat DAT; read-out: DAT, IC50, Table 1",213 ± 3 nM
"1-((5S,8S)-8-benzhydryl-1,4-diazabicyclo[3.3.1]nonane-2-yl)-3-phenylpropan-2-ol [Example 6b]",Ki,DAT; [3],16.8 nM
"OC(CN1CCN2CC1CCC2C(c1ccccc1)c1ccccc1)c1ccc(F)cc1 [Example 7c, (R)-2-((5S,8S)-8-benzhydryl-1,4-diazabicyclo[3.3.1]nonane-2-yl)-1-4-fluorophenyl)ethanol]",Ki,DAT; [4],66.5 nM
"OC1CN(Cc2ccc(F)cc2)CCC1CCOC(c1ccccc1)c1ccccc1 (racemic) [Example 16, racemic trans-3-hydroxy-4-[2-diphenylmethoxy)ethyl]-1-[(4-fluorophenyl)methyl]piperidine]",IC50,rat SERT,1110 nM
same,IC50,"[2]; Table 5, rat striatum, read-out: NET, IC50, nM [3H]nisoxetine",637 ± 114 nM
same,IC50,rat DAT,5.96 ± 1.26 nM
CN(CC1CCN(Cc2ccc(F)cc2)CC1)CC(c1ccccc1)c1ccccc1 (as salt: oxalate) [Example 13],melting point,,144 to 145 °C
"Fc1ccc(CN2CCC(CCNC(c3ccccc3)c3ccccc3)CC2)cc1F [Example 8, 4-[2-((Diphenylmethyl)amino)ethyl]-1-[(3,4-difluorophenyl)methyl]piperidine]",IC50,"rat SERT; Table 1, read-out: SERT, IC50",1590 ± 160 nM
same,IC50,"[2]; Table 1, read-out: NET, IC50",1030 nM
same,IC50,[1],10.7 ± 1.8 nM
"Fc1ccc(CN2CCC(CNOC(c3ccccc3)c3ccccc3)CC2)cc1 (as salt: oxalate) [Example 7, 4-[((2-Diphenylmethoxy)amino)methyl]-1-[(4-fluorophenyl)methyl]piperidine]",melting point,,154 to 155 °C
CN(CC1CCN(Cc2ccc(F)cc2)CC1)CC(c1ccccc1)c1ccccc1 [Example 13],IC50,"rat SERT; Table 1, read-out: SERT, IC50",2520 ± 230 nM
same,IC50,"rat DAT; read-out: DAT, IC50, Table 1",94 ± 12.5 nM
"Oc1cccc(CN2CCC(CCOC(c3ccccc3)c3ccccc3)CC2)c1 [Example 3-OH, 4-[2-(diphenylmethoxy)ethyl]-1-[(3-hydroxyphenyl)methyl]piperidine]",IC50,"rat SERT; Table 1, read-out: SERT, IC50",984 ± 94 nM
same,IC50,"[2]; Table 1, read-out: NET, IC50",678 ± 13 nM
same,IC50,"rat DAT; read-out: DAT, IC50, Table 1",14.3 ± 3.7 nM
